# Patent publication US12378241B2, “Pyridine derivative as FGFR and VEGFR dual inhibitors” (CGeneTech (Suzhou,China) CO., Ltd., priority 2019, dated 2025)
# Where a name gives a salt, the structure may show the parent alone. Read-outs that look alike come from different tables or passages of the source.
# What was measured:
# human FGFR1 = human FGFR1 (Homo sapiens (Human), UniProt P11362); assay: 33P isotope-labeled kinase activity test (Reaction Biology Corp), FGFR1; type: biochemical; details: ATP 5 μM
# Chain of human FGFR1 (P11362 22-822): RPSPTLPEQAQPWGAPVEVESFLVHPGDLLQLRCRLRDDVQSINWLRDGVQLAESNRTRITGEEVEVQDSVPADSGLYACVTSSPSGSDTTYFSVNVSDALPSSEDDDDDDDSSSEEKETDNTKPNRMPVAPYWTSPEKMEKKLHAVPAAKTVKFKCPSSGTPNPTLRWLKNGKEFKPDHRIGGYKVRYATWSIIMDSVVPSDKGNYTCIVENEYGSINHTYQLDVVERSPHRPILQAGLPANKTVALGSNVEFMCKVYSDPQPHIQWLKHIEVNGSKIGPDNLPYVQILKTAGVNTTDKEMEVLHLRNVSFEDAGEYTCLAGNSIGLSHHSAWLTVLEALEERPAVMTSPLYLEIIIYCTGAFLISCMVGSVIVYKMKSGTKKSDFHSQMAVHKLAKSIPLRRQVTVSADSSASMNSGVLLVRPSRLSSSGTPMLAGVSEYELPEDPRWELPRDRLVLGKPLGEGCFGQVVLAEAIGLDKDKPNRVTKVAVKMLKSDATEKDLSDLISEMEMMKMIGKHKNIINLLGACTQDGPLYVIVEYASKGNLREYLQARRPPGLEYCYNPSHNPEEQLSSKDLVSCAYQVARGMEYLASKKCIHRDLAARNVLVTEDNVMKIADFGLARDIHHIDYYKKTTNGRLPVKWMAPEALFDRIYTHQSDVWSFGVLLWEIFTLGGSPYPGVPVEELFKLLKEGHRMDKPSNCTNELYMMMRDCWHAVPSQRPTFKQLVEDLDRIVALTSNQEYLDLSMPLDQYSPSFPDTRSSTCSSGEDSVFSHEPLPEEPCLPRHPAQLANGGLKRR
# Method: (§1) The IC50 value was determined using ^33P isotope-labeled kinase activity test (Reaction Biology Corp) to evaluate the inhibitory ability of the compounds to be tested on human FGFR1, FGFR2 and VEGFR2.
# (§2) Buffer conditions: 20 mM Hepes (pH 7.5), 10 mM MgCl2, 1 mM EGTA, 0.02% Brij35, 0.02 mg/mL BSA, 0.1 mM Na3VO4, 2 mM DTT, 1% DMSO.
# (§3) Test steps: At room temperature, the compounds to be tested were dissolved in DMSO to prepare a 10 mM solution for use. The substrate was dissolved in the newly-prepared buffer, and the kinase to be tested was added thereto and mixed well. The DMSO solution in which the compounds to be tested were dissolved was added to the above-mentioned homogeneous reaction mixture using acoustic technology (Echo 550). […] After incubating for 15 minutes, ^33P-ATP (activity: 0.01 μCi/μL, with corresponding concentration listed in Table 4) was added to the reaction mixture to start the reaction. […] The kinase activity data was expressed by comparing the kinase activity of the groups containing the compounds to be tested with that of the blank group (containing only DMSO).
# human VEGFR2 = human VEGFR2 (Homo sapiens (Human), UniProt P35968); assay: 33P isotope-labeled kinase activity test (Reaction Biology Corp), VEGFR2; type: biochemical; details: ATP 10 μM
# Chain of human VEGFR2 (P35968 20-1356): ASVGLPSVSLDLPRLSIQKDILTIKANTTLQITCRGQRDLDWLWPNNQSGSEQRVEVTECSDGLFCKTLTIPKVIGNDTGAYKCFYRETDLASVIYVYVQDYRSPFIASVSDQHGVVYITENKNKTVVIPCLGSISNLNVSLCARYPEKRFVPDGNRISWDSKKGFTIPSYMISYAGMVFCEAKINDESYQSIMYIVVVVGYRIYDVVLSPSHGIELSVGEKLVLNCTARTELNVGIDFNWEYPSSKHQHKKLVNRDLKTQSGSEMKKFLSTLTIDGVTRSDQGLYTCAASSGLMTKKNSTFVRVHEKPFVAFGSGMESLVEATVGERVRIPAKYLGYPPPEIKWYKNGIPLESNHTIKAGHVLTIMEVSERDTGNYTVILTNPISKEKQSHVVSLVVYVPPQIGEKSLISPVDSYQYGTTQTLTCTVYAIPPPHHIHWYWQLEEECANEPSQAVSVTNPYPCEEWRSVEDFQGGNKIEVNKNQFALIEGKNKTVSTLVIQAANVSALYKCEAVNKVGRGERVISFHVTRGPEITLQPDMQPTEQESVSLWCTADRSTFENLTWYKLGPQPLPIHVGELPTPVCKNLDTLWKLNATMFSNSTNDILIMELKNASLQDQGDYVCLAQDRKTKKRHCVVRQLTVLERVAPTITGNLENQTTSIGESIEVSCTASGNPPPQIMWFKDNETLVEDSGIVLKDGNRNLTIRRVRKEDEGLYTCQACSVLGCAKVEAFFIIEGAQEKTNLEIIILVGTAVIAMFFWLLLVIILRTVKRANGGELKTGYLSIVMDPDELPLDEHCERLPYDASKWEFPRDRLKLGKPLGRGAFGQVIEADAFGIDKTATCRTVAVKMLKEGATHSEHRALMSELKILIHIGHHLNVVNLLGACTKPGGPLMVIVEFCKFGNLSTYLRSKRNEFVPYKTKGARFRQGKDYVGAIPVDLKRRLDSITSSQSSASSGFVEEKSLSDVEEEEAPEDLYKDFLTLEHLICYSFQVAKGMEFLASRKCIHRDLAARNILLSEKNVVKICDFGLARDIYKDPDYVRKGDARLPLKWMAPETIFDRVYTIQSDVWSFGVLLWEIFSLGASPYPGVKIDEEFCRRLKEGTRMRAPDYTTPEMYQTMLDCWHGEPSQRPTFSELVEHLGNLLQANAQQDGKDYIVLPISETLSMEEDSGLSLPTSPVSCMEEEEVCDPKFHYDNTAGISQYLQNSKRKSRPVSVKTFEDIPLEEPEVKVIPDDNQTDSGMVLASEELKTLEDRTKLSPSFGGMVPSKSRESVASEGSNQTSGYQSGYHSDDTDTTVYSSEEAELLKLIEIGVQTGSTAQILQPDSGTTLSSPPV
# Method: as §1, §2, §3
# human FGFR2 = human FGFR2 (Homo sapiens (Human), UniProt P21802); assay: 33P isotope-labeled kinase activity test (Reaction Biology Corp), FGFR2; type: biochemical; details: ATP 5 μM
# Chain of human FGFR2 (P21802 22-821): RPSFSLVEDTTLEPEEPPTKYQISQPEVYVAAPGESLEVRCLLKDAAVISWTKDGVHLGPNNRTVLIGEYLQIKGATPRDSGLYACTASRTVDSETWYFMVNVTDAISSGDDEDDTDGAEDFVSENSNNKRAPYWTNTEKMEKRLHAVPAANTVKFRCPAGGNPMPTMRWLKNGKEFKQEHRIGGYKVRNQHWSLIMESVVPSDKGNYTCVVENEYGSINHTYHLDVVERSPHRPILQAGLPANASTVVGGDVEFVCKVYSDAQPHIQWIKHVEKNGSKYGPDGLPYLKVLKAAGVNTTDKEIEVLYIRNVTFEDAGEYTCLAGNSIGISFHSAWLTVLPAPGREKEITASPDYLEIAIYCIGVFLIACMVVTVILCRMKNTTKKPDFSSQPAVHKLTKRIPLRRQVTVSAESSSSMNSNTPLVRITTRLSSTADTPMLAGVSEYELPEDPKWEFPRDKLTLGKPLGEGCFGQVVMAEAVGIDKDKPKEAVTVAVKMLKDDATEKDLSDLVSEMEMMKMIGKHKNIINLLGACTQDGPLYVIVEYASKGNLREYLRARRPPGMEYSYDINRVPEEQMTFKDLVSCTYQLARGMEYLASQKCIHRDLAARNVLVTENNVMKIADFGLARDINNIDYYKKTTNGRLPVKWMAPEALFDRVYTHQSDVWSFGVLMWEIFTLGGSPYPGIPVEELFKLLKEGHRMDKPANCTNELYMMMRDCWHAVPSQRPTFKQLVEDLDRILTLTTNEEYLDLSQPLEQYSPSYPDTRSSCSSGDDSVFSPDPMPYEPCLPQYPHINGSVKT
# Method: as §1, §2, §3
# [1] = Evaluation of the pharmacokinetics in female Balb/c mice (IV and PO); type: in vivo; details: for Tlast / AUC(0-inf) / AUC(0-t) / clearance / half-life / MRT last / Vd / bioavailability / Tmax / C0 / Cmax: female Balb/c mice; for AUC(0-inf) / AUC(0-t) / clearance / half-life / MRT last / Vd / bioavailability / Tmax / C0 / Cmax: mouse, plasma; for MRT last: read-out: MRT0-last; for Vd: read-out: Vdss; for bioavailability: read-out: F (bioavailability)
# Method: […] […] About 30 μL blood samples were collected from the jugular vein at 0.0833, 0.25, 0.5, 1.0, 2.0, 4.0, 8.0, 24 h after administration and from the tail vein at 0.25, 0.5, 1.0, 2.0, 4.0, 8.0, 24 h after administration, and the blood samples were put in an anticoagulation tube containing EDTA-K2, the plasma was separated by centrifugation. The LC-MS/MS method was used to determine the blood drug concentration, the WinNonlin™ Version 6.3 (Pharsight, Mountain View, CA) pharmacokinetic software was used to calculate the relevant pharmacokinetic parameters by the non-compartmental model linear logarithmic ladder method.
# [2] = tested on: human gastric cancer SNU-16; assay: Anti-tumor activity in mouse subcutaneous xenograft tumor model of human gastric cancer SNU-16; type: in vivo, nude mice; details: PO 10/20/40 mg/kg QD (20 mg/kg from day 8, 40 mg/kg from day 17)
# Method: To study the anti-tumor effect of the compounds of the present disclosure in a mouse subcutaneous xenograft tumor model of human gastric cancer SNU-16.
# Preparation of tumor tissues: SNU-16 cells were routinely cultured in an RPMI-1640 culture medium containing 10% fetal bovine serum under the conditions of 5% CO2, 37° C. and saturated humidity. According to cell growth, the cells were passaged or refilled 1 to 2 times a week with a passage ratio of 1:3 to 1:4.
# SNU-16 cells at the logarithmic growth phase were collected, counted and then resuspended in a 50% serum-free RPMI-1640 culture medium and 50% Matrigel, and cell concentration was adjusted to 4×10^7 cells/mL; the cells were placed in an ice box, and the cell suspension was suctioned with a 1 mL syringe, and subcutaneously injected into the anterior right axillary of nude mice, each animal was inoculated with 200 μL (8×10^6 cells/mouse) to establish a SNU-16 xenograft model. The animal status was observed regularly, and the tumor diameter was measured with an electronic vernier caliper. […]
# 3) The tumor diameter was measured twice a week to calculate the tumor volume, and the animal body weight was weighed and recorded. […]
# The anti-tumor efficacy of the compounds was evaluated by TGI (%) or relative tumor proliferation rate T/C (%). […] The relative tumor volume (RTV) was calculated according to the results of the tumor measurement. […]
structure (smiles),measurement,setting,value
"Cn1cc(-c2ccn3c(-c4cc(NS(C)(=O)=O)cc(-c5ccc(F)cc5F)n4)cnc3c2)cn1 [Formate of compound C, reference compound]",IC50,human FGFR1,724 nM
same,IC50,human VEGFR2,5580 nM
CCOC(=O)Nc1cc(-c2cnc3cc(-c4cnn(C)c4)ccn23)cc(-c2ccc(F)cc2F)n1 [Trifluoroacetate salt of compound 3],IC50,human FGFR2,3.26 nM
same,IC50,human VEGFR2,1.99 nM
Cn1cc(-c2ccn3c(-c4cc(NS(=O)(=O)C5CC5)nc(-c5ccc(F)cc5F)c4)cnc3c2)cn1 [Trifluoroacetate salt of compound 1],IC50,human FGFR1,4.55 nM
same,Tlast,[1]; IV 2 mg/kg,8.00 h
same,AUC of intravenous drug exposure compared with the trifluoroacetate of control compound A,"[1]; IV, mice",doubled
same,plasma clearance rate compared with the trifluoroacetate of control compound A,"[1]; IV, mice",nearly decreased the plasma clearance rate by 1 time
same,Tlast,[1]; PO 10 mg/kg,8.00 h
same,oral absorption drug exposure compared with the trifluoroacetate of control compound A,"[1]; PO, mice",nearly doubled
same,AUC(0-inf),[1]; IV 2 mg/kg,13700 nM·h
same,AUC(0-t),[1]; IV 2 mg/kg,13300 nM·h
same,clearance,[1]; IV 2 mg/kg,0.289 L/h/kg
same,half-life,[1]; IV 2 mg/kg,1.6 h
same,MRT last,[1]; IV 2 mg/kg,2.07 h
same,Vd,[1]; IV 2 mg/kg,0.667 L/kg
same,bioavailability,[1]; PO 10 mg/kg vs IV 2 mg/kg,39.4%
same,AUC(0-inf),[1]; PO 10 mg/kg,26900 nM·h
same,AUC(0-t),[1]; PO 10 mg/kg,23600 nM·h
same,Tmax,[1]; PO 10 mg/kg,1 h
same,half-life,[1]; PO 10 mg/kg,2.5 h
same,MRT last,[1]; PO 10 mg/kg,3.12 h
same,C0,[1]; IV 2 mg/kg,7.53 µM
same,Cmax,[1]; PO 10 mg/kg,5.3 µM
same,IC50,human FGFR2,2.86 nM
same,IC50,human VEGFR2,3.82 nM
Cc1cc(F)ccc1-c1cc(-c2cnc3cc(-c4cnn(C)c4)ccn23)cc(NS(=O)(=O)C2CC2)n1 [Trifluoroacetate salt of compound 2],IC50,human FGFR2,46.1 nM
same,IC50,human VEGFR2,67.3 nM
"Cn1cc(-c2ccc3c(c2)ncn3-c2cc(NS(=O)(=O)C3CC3)cc(-c3ccc(F)cc3F)c2)cn1 [Trifluoroacetate of compound A, reference compound]",IC50,human FGFR1,22.3 nM
same,Tlast,[1]; IV 0.2 mg/kg,4.00 h
same,Tlast,[1]; PO 1 mg/kg,8.00 h
same,AUC(0-inf),[1]; IV 0.2 mg/kg,717 nM·h
same,AUC(0-t),[1]; IV 0.2 mg/kg,663 nM·h
same,clearance,[1]; IV 0.2 mg/kg,0.552 L/h/kg
same,half-life,[1]; IV 0.2 mg/kg,1.08 h
same,MRT last,[1]; IV 0.2 mg/kg,1.21 h
same,Vd,[1]; IV 0.2 mg/kg,0.85 L/kg
same,bioavailability,[1]; PO 1 mg/kg vs IV 0.2 mg/kg,40.3%
same,AUC(0-inf),[1]; PO 1 mg/kg,1440 nM·h
same,AUC(0-t),[1]; PO 1 mg/kg,1410 nM·h
same,Tmax,[1]; PO 1 mg/kg,1 h
same,half-life,[1]; PO 1 mg/kg,1.4 h
same,MRT last,[1]; PO 1 mg/kg,2.76 h
same,C0,[1]; IV 0.2 mg/kg,0.563 µM
same,Cmax,[1]; PO 1 mg/kg,0.469 µM
Cn1cc(-c2ccn3c(-c4cc(NS(C)(=O)=O)nc(-c5ccc(F)cc5F)c4)cnc3c2)cn1 [Trifluoroacetate salt of compound 7],T/C (%) (relative tumor proliferation rate) D25,[2],31%
same,TGI (%) (tumor growth inhibition rate) D25,[2],69%
same,Tlast,[1]; IV 0.2 mg/kg,4.00 h
same,Tlast,[1]; PO 1 mg/kg,8.00 h
same,AUC(0-inf),[1]; IV 0.2 mg/kg,871 nM·h
same,AUC(0-t),[1]; IV 0.2 mg/kg,810 nM·h
same,clearance,[1]; IV 0.2 mg/kg,0.478 L/h/kg
same,half-life,[1]; IV 0.2 mg/kg,0.968 h
same,MRT last,[1]; IV 0.2 mg/kg,1.08 h
same,Vd,[1]; IV 0.2 mg/kg,0.661 L/kg
same,bioavailability,[1]; PO 1 mg/kg vs IV 0.2 mg/kg,59.3%
same,AUC(0-inf),[1]; PO 1 mg/kg,2580 nM·h
same,AUC(0-t),[1]; PO 1 mg/kg,2530 nM·h
same,Tmax,[1]; PO 1 mg/kg,1 h
same,half-life,[1]; PO 1 mg/kg,1.33 h
same,MRT last,[1]; PO 1 mg/kg,2.35 h
same,C0,[1]; IV 0.2 mg/kg,0.735 µM
same,Cmax,[1]; PO 1 mg/kg,0.973 µM
same,IC50,human FGFR2,3.22 nM
same,IC50,human VEGFR2,2.94 nM
Cn1cc(-c2ccn3c(-c4cc(NCC5COC(C)(C)O5)nc(-c5ccc(F)cc5F)c4)cnc3c2)cn1 (stereo not drawn) [Compound 11],IC50,human FGFR2,2.27 nM
same,IC50,human VEGFR2,7.57 nM
CCS(=O)(=O)Nc1cc(-c2cnc3cc(-c4cnn(C)c4)ccn23)cc(-c2ccc(F)cc2F)n1 [Trifluoroacetate salt of compound 6],IC50,human FGFR2,7.36 nM
same,IC50,human VEGFR2,8.09 nM
Cn1cc(-c2ccn3c(-c4cc(NC5CCOCC5)nc(-c5ccc(F)cc5F)c4)cnc3c2)cn1 [Compound 10],IC50,human FGFR2,17.1 nM
CCCS(=O)(=O)Nc1cc(-c2cnc3cc(-c4cnn(C)c4)ccn23)cc(-c2ccc(F)cc2F)n1 [Trifluoroacetate salt of compound 8],IC50,human FGFR2,7.18 nM
same,IC50,human VEGFR2,14.7 nM
CCOC(=O)Nc1cc(-c2cnc3cc(-c4cnn(C)c4)ccn23)cc(-c2ccc(F)cc2C)n1 [Trifluoroacetate salt of compound 4],IC50,human FGFR2,45.2 nM
same,IC50,human VEGFR2,24.3 nM
Cc1c(-c2ccn3c(-c4cc(NS(C)(=O)=O)nc(-c5ccc(F)cc5F)c4)cnc3c2)cnn1C [Trifluoroacetate salt of compound 13],IC50,human VEGFR2,11.1 nM
"Cn1cc(-c2ccc3c(c2)ncn3-c2cc(NS(C)(=O)=O)cc(-c3ccc(F)cc3F)c2)cn1 [Trifluoroacetate of compound B, reference compound]",IC50,human FGFR2,22.6 nM
same,IC50,human VEGFR2,11.8 nM
Cn1cc(-c2ccn3c(-c4cc(NCC(C)(C)O)nc(-c5ccc(F)cc5F)c4)cnc3c2)cn1 [Compound 9],IC50,human FGFR2,4.92 nM
same,IC50,human VEGFR2,3.73 nM
CCOC(=O)Nc1cc(-c2cnc3cc(-c4cnn(C)c4C)ccn23)cc(-c2ccc(F)cc2F)n1 [Trifluoroacetate salt of compound 12],IC50,human FGFR2,19.4 nM
same,IC50,human VEGFR2,9.27 nM
